Converted amounts (≈) assume the structure as drawn. The source made the active and inactive calls. The calls are words filed in the database; no cut-off is given here.
Columns and labels:
Mus musculus [1] = assay: Induction of histone H3 hyperacetylation in human HCT116 cells xenografted in nude mouse at 30 mg/kg, po after 4 hrs by immunoblotting relative to control; format: functional, organism-based; design: dose 30 mg/kg; conditions: HCT-116
Mus musculus [2] = assay: Induction of histone H3 hyperacetylation in human HCT116 cells xenografted in nude mouse at 30 mg/kg, po after 8 hrs by immunoblotting relative to control; format: functional, organism-based; design: dose 30 mg/kg; conditions: HCT-116
Histone deacetylase = assay: Inhibition of HDAC in human HeLa cells assessed as histone H3 hyperacetylation; format: cell-based
HCT-116 [3] = assay: Cytotoxicity against human HCT116 cells; format: functional, cell-based
[4] = (§1) Cytotoxicity against human […] cells; format: functional, cell-based
[5] = Aqueous solubility of the compound; format: physicochemical; conditions: buffer
Cytochrome P450 2D6 = Cytochrome P450 2D6 (Homo sapiens, UniProt P10635); assay: Inhibition of CYP2D6; format: ADME
Cytochrome P450 2D6, sequence (P10635 whole entry): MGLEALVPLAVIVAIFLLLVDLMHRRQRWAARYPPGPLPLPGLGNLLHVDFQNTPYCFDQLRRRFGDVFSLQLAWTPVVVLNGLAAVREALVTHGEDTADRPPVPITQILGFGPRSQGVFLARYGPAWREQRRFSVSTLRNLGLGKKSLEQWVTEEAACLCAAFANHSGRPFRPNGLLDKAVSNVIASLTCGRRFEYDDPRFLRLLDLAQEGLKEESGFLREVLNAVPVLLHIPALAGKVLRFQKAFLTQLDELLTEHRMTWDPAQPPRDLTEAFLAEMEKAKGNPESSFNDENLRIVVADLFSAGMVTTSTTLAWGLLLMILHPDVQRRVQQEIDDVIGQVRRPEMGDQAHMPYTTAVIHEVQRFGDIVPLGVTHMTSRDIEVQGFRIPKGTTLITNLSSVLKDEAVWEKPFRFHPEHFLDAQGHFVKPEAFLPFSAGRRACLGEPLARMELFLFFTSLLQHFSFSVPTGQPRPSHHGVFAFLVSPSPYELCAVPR

Cytochrome P450 2C9 = Cytochrome P450 2C9 (Homo sapiens, UniProt P11712); assay: Inhibition of CYP2C9; format: ADME
Cytochrome P450 2C9, sequence (P11712 whole entry): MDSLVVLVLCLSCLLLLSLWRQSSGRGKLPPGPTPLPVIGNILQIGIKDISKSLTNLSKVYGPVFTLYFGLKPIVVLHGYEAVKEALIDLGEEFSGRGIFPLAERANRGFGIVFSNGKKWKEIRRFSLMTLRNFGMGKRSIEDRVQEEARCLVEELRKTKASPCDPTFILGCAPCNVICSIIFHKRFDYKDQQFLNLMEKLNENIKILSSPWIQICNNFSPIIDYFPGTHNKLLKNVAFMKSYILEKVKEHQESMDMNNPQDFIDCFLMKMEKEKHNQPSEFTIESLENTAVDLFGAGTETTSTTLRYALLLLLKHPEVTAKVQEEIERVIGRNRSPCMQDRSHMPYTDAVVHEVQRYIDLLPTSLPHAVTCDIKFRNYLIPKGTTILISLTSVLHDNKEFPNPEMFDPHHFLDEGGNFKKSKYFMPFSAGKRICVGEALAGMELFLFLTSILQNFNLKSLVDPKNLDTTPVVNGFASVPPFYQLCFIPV

Cytochrome P450 2C19 = Cytochrome P450 2C19 (Homo sapiens, UniProt P33261); assay: Inhibition of CYP2C19; format: ADME
Cytochrome P450 2C19, sequence (P33261 whole entry): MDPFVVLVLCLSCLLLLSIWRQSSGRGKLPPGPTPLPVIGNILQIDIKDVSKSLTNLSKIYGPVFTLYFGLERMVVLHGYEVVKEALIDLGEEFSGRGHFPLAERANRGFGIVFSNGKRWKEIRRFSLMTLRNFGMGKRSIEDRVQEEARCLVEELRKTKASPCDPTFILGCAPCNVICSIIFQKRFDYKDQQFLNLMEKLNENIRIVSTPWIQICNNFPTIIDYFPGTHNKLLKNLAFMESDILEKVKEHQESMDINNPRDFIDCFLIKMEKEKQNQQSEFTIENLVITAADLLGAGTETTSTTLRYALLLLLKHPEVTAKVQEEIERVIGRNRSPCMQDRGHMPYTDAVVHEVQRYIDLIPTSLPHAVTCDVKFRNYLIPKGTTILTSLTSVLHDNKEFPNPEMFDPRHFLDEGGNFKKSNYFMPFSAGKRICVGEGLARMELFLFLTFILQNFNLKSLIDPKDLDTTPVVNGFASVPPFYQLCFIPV

Cytochrome P450 1A2 = biological target: T1, Cytochrome P450 1A2 (Homo sapiens, UniProt P05177); assay: Inhibition of CYP1A2; format: ADME
T1 sequence (P05177 whole entry): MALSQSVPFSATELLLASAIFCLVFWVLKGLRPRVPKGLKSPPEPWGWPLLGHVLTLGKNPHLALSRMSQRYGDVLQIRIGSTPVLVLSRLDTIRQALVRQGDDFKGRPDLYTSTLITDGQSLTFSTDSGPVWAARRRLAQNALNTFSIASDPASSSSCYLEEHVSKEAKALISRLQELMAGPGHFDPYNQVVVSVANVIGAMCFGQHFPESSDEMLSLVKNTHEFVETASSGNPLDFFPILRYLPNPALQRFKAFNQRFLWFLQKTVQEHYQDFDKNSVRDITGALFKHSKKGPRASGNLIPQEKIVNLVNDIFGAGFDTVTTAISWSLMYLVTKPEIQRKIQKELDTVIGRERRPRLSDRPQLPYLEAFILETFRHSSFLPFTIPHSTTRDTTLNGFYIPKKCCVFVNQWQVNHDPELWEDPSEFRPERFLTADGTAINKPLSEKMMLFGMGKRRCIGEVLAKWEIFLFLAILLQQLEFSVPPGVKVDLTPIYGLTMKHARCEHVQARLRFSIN

[6] = biological target: Voltage-gated inwardly rectifying potassium channel KCNH2 (Homo sapiens, UniProt Q12809); assay: Inhibition of human ERG by patch-clamp assay
Voltage-gated inwardly rectifying potassium channel KCNH2, sequence (Q12809 whole entry): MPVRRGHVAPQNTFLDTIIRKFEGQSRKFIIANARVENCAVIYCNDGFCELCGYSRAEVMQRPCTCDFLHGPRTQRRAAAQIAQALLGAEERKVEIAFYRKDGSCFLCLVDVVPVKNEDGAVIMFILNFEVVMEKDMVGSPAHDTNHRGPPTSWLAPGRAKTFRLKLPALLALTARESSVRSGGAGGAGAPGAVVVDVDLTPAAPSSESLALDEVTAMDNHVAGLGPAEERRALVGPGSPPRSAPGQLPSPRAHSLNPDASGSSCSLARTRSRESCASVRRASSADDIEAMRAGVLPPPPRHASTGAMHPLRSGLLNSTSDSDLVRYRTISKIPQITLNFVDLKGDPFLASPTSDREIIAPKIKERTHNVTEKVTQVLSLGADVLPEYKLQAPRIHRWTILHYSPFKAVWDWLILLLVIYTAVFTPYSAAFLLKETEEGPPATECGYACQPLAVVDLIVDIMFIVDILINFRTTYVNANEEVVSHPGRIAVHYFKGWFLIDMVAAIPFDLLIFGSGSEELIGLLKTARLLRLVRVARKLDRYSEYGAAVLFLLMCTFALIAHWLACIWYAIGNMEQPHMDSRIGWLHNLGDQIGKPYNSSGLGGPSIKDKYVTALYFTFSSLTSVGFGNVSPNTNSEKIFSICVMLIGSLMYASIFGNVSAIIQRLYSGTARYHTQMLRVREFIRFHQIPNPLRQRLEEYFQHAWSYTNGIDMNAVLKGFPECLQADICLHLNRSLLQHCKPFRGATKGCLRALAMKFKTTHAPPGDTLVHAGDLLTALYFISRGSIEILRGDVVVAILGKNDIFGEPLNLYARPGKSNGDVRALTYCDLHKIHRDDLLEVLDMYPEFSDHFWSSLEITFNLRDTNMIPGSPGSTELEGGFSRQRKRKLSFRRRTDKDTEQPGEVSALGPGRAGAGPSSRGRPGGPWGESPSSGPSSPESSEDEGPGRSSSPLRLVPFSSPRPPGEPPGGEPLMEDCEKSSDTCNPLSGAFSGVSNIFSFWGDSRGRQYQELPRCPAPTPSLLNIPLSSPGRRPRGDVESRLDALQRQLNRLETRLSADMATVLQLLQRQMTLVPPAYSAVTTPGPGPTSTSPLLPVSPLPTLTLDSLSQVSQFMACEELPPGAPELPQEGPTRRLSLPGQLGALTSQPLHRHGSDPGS

HT-29 = assay: Cytotoxicity against human HT-29 cells; format: functional, cell-based
MDA-MB-435 = assay: Cytotoxicity against human MDA-MB-435 cells; format: functional, cell-based
NCI-H460 = assay: Cytotoxicity against human H460 cells; format: functional, cell-based
SK-OV-3 = assay: Cytotoxicity against human SKOV3 cells; format: functional, cell-based
PC-3 = assay: Cytotoxicity against human PC3 cells; format: functional, cell-based
786-0 = assay: Cytotoxicity against human 786-0 cells; format: functional, cell-based
HL-60 = assay: Cytotoxicity against human HL60 cells; format: functional, cell-based
[7] = Cytotoxicity against human MJ cells; format: functional, cell-based
Mus musculus [8] = assay: Induction of histone H3 hyperacetylation in human HCT116 cells xenografted in nude mouse at 42 mg/kg, po by immunoblotting relative to control; format: functional, HCT-116
Mus musculus [9] = assay: Induction of histone H3 hyperacetylation in human HCT116 cells xenografted in nude mouse at 42 mg/kg, iv by immunoblotting relative to control; format: functional, HCT-116
HCT-116 [10] = assay: Antitumor activity against human HCT116 cells xenografted in nude mouse assessed as tumor growth inhibition at 42 mg/kg, po QOD for 14 days relative to control; format: functional; design: scale not given: the % may be the effect or the level left
HCT-116 [11] = assay: Antitumor activity against human HCT116 cells xenografted in nude mouse assessed as tumor growth inhibition at 84 mg/kg, po QOD for 14 days relative to control; format: functional; design: scale not given: the % may be the effect or the level left
Cytochrome P450 3A4 = Cytochrome P450 3A4 (Homo sapiens, UniProt P08684); assay: Inhibition of CYP3A4; format: ADME
Cytochrome P450 3A4, sequence (P08684 whole entry): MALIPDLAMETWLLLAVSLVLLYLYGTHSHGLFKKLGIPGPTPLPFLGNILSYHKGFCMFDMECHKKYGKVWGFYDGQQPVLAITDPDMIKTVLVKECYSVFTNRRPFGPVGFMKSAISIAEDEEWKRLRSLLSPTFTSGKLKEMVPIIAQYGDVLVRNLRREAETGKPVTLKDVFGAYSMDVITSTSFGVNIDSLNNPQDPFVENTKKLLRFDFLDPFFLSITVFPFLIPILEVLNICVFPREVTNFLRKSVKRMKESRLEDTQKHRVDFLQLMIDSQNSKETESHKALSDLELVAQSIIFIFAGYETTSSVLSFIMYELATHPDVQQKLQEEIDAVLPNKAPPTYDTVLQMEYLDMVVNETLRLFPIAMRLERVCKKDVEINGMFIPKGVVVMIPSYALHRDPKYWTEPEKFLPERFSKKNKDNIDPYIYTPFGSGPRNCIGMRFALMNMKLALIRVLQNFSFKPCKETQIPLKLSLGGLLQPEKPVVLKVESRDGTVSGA

Mus musculus [12] = assay: Induction of histone H3 hyperacetylation in human HCT116 cells xenografted in nude mouse at 50 mg/kg, po by immunoblotting relative to control; format: functional, HCT-116
U226 = assay: as §1; format: functional, cell-based

| EC50 (Histone deacetylase) | Structure (SMILES) | EC50 (HCT-116 [3]) | EC50 [4] | further results |
| --- | --- | --- | --- | --- |
| 67 nM | CC(=O)SCC(=O)c1ccc(NS(=O)(=O)c2ccc(OCCCN3CCOCC3)cc2)nc1 | 330 nM | 19000 nM | – |
| 45 nM | CC(=O)SCC(=O)c1ccc(NS(=O)(=O)c2ccc(OCCCN(C)C)cc2)nc1 [listing 2 of 2 here] | 140 nM | 180 nM | EC50 (HT-29): 1000 nM; EC50 (MDA-MB-435): 180 nM; EC50 (NCI-H460): 230 nM; EC50 (SK-OV-3): 760 nM; EC50 (PC-3): 740 nM; EC50 (786-0): 590 nM; EC50 (HL-60): 390 nM; EC50 [7]: 170 nM; fold change (FC) (Mus musculus [8]): 9; fold change (FC) (Mus musculus [9]): 12; Activity (HCT-116 [10]): 44%; Activity (HCT-116 [11]): 25% |
| 29 nM | CC(=O)SCC(=O)c1ccc(NS(=O)(=O)c2ccc(OCCCCN(C)C)cc2)nc1 | 280 nM | 120 nM | – |
| 120 nM | COCCCOc1ccc(S(=O)(=O)Nc2ccc(C(=O)CSC(C)=O)cn2)cc1 | 5300 nM | 29000 nM | – |
| 93 nM | CC(=O)SCC(=O)c1ccc(NS(=O)(=O)c2ccc(OCCN(C)C)cc2)nc1 | 660 nM | – | Activity (U226): inactive |
| 53 nM | CC(=O)SCC(=O)c1ccc(NS(=O)(=O)c2ccc(OCCCN3CCCCC3)cc2)nc1 | 1000 nM | 800 nM | – |
| 220 nM | CC(=O)SCC(=O)c1ccc(NS(=O)(=O)c2ccc(OCCCc3ccccn3)cc2)nc1 | – | – | – |
| 110 nM | CC(=O)SCC(=O)c1ccc(NS(=O)(=O)c2ccc(OCCCO)cc2)nc1 | 8600 nM | – | – |
| 29 nM | COc1ccc(S(=O)(=O)Nc2ccc(C(=O)CSC(C)=O)cn2)cc1 | 540 nM | – | – |
| 61 nM | CC(=O)SCC(=O)c1ccc(NS(=O)(=O)c2ccc(OCCCN3CCCC3)cc2)nc1 | 820 nM | 400 nM | – |

More lines, now with the values behind:

| Structure (SMILES) | EC50 (Histone deacetylase) | EC50 (HCT-116 [3]) | EC50 [4] | further results |
| --- | --- | --- | --- | --- |
| CC(=O)SCC(=O)c1ccc(NS(=O)(=O)c2ccc(OCCCN(C)C)cc2)nc1 [listing 1 of 2 here] | – | – | – | Activity (Mus musculus [1]): Active; Activity (Mus musculus [2]): Active |
| Br.CC(=O)SCC(=O)c1ccc(NS(=O)(=O)c2ccc(OCCCN(C)C)cc2)nc1 | – | – | – | solubility [5]: 10000 µg/mL; EC50 (Cytochrome P450 2D6): > 50000 nM; EC50 (Cytochrome P450 2C9): > 50000 nM; EC50 (Cytochrome P450 2C19): > 50000 nM; EC50 (Cytochrome P450 1A2): > 50000 nM; EC50 [6]: > 30000 nM |
| CC(=O)SCC(=O)c1ccc(NS(=O)(=O)c2ccc3c(c2)COOC3)nc1 | 38 nM | 1200 nM | 2000 nM | solubility [5]: 200 µg/mL (≈ 490 µM); EC50 (Cytochrome P450 3A4): > 50000 nM; EC50 (Cytochrome P450 2D6): > 50000 nM; EC50 (Cytochrome P450 2C9): 10000 nM; EC50 (Cytochrome P450 2C19): > 50000 nM; EC50 (Cytochrome P450 1A2): > 50000 nM; EC50 [6]: > 30000 nM; fold change (FC) (Mus musculus [12]): 5 |
| CC(=O)SCC(=O)c1ccc(NS(=O)(=O)c2ccc(OCc3ccccn3)cc2)nc1 | 220 nM | 420 nM | – | – |
| COc1cccc(S(=O)(=O)Nc2ccc(C(=O)CSC(C)=O)cn2)c1 | 190 nM | 4300 nM | – | – |
| CC(=O)SCC(=O)c1ccc(NS(=O)(=O)c2ccc(OC3CCN(C)CC3)cc2)nc1 | 44 nM | 180 nM | 300 nM | – |
| CC(=O)SCC(=O)c1ccc(NS(=O)(=O)c2ccc(OC3CCCN(C)C3)cc2)nc1 (stereo not given) | 110 nM | 3700 nM | 1200 nM | – |
| CC(=O)SCC(=O)c1ccc(NS(=O)(=O)c2ccc(OCCc3ccccn3)cc2)nc1 | 190 nM | 750 nM | 9600 nM | – |

From ChEMBL document CHEMBL1152294, “Identification of KD5170: a novel mercaptoketone-based histone deacetylase inhibitor” (Bioorg Med Chem Lett, 2008)
